# Assay results reported in patent US20240316047A1, “INHIBITORS OF RNA HELICASE DHX9 AND USES THEREOF” (ACCENT THERAPEUTICS, INC., priority 2022, published 2024).
# Molecular target: Human recombinant DHX9 protein (Homo sapiens (Human), UniProt Q08211)
# Assay: DHX9 ATPase assay (ADP-Glo)
# Type: biochemical
# Conditions: for IC50: read-out: DHX9 Biochemical Inflection Point
# Human recombinant DHX9 protein, sequence (Q08211 whole entry): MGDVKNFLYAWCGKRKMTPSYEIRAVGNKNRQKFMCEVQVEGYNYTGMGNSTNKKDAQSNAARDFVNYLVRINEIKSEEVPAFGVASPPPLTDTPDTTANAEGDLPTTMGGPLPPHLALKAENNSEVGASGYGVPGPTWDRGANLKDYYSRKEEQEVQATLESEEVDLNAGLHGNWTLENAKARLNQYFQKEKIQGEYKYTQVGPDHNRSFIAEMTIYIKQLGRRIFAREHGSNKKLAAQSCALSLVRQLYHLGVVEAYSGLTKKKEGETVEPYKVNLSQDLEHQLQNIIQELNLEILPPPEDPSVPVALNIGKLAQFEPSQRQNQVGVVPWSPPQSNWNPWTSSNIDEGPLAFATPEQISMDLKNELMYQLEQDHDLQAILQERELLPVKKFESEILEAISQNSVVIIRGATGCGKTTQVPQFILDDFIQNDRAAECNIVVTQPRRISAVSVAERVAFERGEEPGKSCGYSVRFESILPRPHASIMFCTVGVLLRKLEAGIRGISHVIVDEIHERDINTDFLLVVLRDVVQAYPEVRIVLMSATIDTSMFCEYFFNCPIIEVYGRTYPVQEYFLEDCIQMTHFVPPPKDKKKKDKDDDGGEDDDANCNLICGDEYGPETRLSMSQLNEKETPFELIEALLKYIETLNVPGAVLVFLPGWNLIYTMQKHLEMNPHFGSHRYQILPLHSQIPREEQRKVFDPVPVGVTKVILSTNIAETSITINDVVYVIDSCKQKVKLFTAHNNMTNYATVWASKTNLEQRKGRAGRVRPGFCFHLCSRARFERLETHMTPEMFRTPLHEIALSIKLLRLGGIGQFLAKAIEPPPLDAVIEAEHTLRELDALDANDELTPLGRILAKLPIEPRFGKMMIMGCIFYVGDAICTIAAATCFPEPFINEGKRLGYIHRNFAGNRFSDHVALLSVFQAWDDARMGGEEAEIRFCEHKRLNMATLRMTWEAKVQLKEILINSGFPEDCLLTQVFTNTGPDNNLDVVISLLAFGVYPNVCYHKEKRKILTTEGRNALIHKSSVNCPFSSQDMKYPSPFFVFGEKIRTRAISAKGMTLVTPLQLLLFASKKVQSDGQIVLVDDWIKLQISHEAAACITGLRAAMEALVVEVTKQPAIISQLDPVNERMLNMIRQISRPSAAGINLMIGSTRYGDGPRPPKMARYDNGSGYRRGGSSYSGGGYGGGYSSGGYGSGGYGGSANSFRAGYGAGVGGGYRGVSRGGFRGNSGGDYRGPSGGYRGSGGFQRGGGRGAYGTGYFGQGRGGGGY
Compound,DHX9 Biochemical Max Inhibition,IC50
CCS(=O)(=O)Nc1cc(Cl)cc(NC(=O)c2cc(-c3ncc(OC)cn3)c(C)s2)c1 [Example 353],69.2%,24.2 nM
Cc1sc(C(=O)Nc2cc(F)cc(NS(C)(=O)=O)c2)cc1-c1ncc(N2CC(C(F)(F)F)C2)cc1F [Example 501],73.3,70.9 nM
"Cc1sc(C(=O)Nc2cc(Cl)cc(NS(C)(=O)=O)c2)cc1-c1ncc(N2CC(F)(F)C2)cc1F [Example 532, N-(3-chloro-5-methanesulfonamidophenyl)-4-[5-(3,3-difluoroazetidin-1-yl)-3-fluoropyridin-2-yl]-5-methylthiophene-2-carboxamide]",70.8,26.4 nM
"Cn1cc(C(=O)Nc2cc(Cl)cc(NS(C)(=O)=O)c2)cc1-c1ncc(F)cn1 [Example 171, N-(3-chloro-5-(methylsulfonamido)phenyl)-5-(5-fluoropyrimidin-2-yl)-1-methyl-1H-pyrrole-3-carboxamide]",61.8%,14.5 nM
Cn1cc(C(=O)Nc2cc(Cl)cc(NS(C)(=O)=O)c2)cc1-c1ncc(N2CC(F)C2)cn1 [Example 598],72.1,16.4 nM
"CS(=O)(=O)Nc1cc(Cl)cc(NC(=O)c2cnn([C@@H]3CCCC[C@H]3O)c2)c1 (relative stereo) [Example 150, N-(3-chloro-5-(methylsulfonamido)phenyl)-1-(trans-2-hydroxycyclohexyl)-1H-pyrazole-4-carboxamide]",65.9%,–
CS(=O)(=O)Nc1cc(Cl)cc(NC(=O)c2c[nH]c(-c3ncc(F)cc3F)c2)c1 [Example 560],59,51 nM
"CS(=O)(=O)Nc1cc(Cl)cc(NC(=O)c2cnn([C@H]3CCC[C@H]3c3ccccc3)c2)c1 (single isomer, unassigned) [Example 260]",50%,–
CCOc1cnc(-c2csc(C(=O)Nc3cc(Cl)cc(NS(C)(=O)=O)c3)c2)nc1 [Example 342],73.6%,33.1 nM
Cc1sc(C(=O)Nc2cc(Cl)cc(NS(C)(=O)=O)c2)cc1-c1ccccc1 [Example 11],62.7%,123 nM
CS(=O)(=O)Nc1cc(Cl)cc(NC(=O)c2cccc(-c3cccc(C#N)c3)c2)c1 [Example 13],41.7%,1150 nM
Cc1sc(C(=O)Nc2cc(Cl)cc(NS(C)(=O)=O)c2)cc1-c1ncc(F)cc1Cl [Example 359],68.3%,54.9 nM
COc1cccc2sc(C(=O)Nc3cc(Cl)cc(NS(C)(=O)=O)c3)cc12 [Example 321],79.2%,13.5 nM
CS(=O)(=O)Nc1cc(Cl)cc(NC(=O)c2cnn(C3CCCC3)c2)c1 [Example 309],60.8%,162 nM
CN1CC(Oc2cnc(-c3cc(C(=O)Nc4cc(Cl)cc(NS(C)(=O)=O)c4)cn3CC(F)(F)F)c(F)c2)C1 [Example 638],70.5,13.9 nM
Cc1cc(N2CCC(F)(F)CC2)cnc1-c1cc(C(=O)Nc2cc(Cl)cc(NS(C)(=O)=O)c2)sc1C [Example 602],92.4,57.8 nM
CN1CCC(c2ccc(-n3cc(C(=O)Nc4cc(Cl)cc(NS(C)(=O)=O)c4)cn3)nc2)CC1=O (stereo not drawn) [Example 266],64.4%,13.1 nM
CS(=O)(=O)Nc1cc(Cl)cc(NC(=O)c2cc3c(F)ccc(F)c3s2)c1 [Example 325],63.9%,591 nM
CC(C)(C)Oc1cnc(-c2cc(C(=O)Nc3cc(Cl)cc(NS(C)(=O)=O)c3)sc2CO)nc1 [Example 686],66.6,18.2 nM
CS(=O)(=O)Nc1cc(Cl)cc(NC(=O)c2cc(-c3ncc(C(F)(F)F)cc3F)cs2)c1 [Example 371],65.3%,140 nM
Cc1sc(C(=O)Nc2cc(Cl)cc(NS(C)(=O)=O)c2)cc1-c1ccc(F)cn1 [Example 35],75.7%,3.9 nM
Cn1cc(C(=O)Nc2cc(Cl)cc(NS(C)(=O)=O)c2)cc1-c1ncc(N2CCCC(F)(F)C2)cc1F [Example 483],56.4,67.3 nM
CS(=O)(=O)Nc1cc(Cl)cc(NC(=O)c2cnn(-c3ncc(F)cc3OCc3cnco3)c2)c1 [Example 719],69.7,84.7 nM
CS(=O)(=O)Nc1cc(Cl)cc(NC(=O)c2cc(N3CCNCC3)cs2)c1 [Example 244],71.9%,73.3 nM
CC(C)c1sc(C(=O)Nc2cc(Cl)cc(NS(C)(=O)=O)c2)cc1-c1ccccn1 [Example 233],80.3%,45.5 nM
Cc1sc(C(=O)Nc2cc(Cl)cc(NS(C)(=O)=O)c2)cc1-c1ncc(C2(F)COC2)cn1 [Example 680],95,3 nM
"Cc1sc(C(=O)Nc2cc(Cl)cc(NS(C)(=O)=O)c2)cc1-c1ncc(OC(C)C)cn1 [Example 541, N-(3-chloro-5-(methylsulfonamido)phenyl)-4-(5-isopropoxypyrimidin-2-yl)-5-methylthiophene-2-carboxamide]",74.1,15.1 nM

Compound,DHX9 Biochemical Max Inhibition,IC50
CS(=O)(=O)Nc1cc(Cl)cc(NC(=O)c2cnn(-c3ncccc3OCc3nccs3)c2)c1 [Example 205],71.4%,22.6 nM
CN1CCN(c2cnc(-n3cc(C(=O)Nc4cc(Cl)cc(NS(C)(=O)=O)c4)cn3)cn2)CC1=O [Example 184],66.3%,19.4 nM
CS(=O)(=O)Nc1cc(Cl)cc(NC(=O)c2cnn(-c3ncc(F)cc3OCc3cccc(C#N)c3)c2)c1 [Example 203],76.5%,28.1 nM
CN1CC2(CC(n3cc(C(=O)Nc4cc(Cl)cc(NS(C)(=O)=O)c4)cn3)C2)C1 [Example 311],77.7%,38.5 nM
CN1CCN(C(=O)c2cc(C(=O)Nc3cc(Cl)cc(NS(C)(=O)=O)c3)cn2-c2ccccn2)CC1 [Example 665],70.1,30.9 nM
CS(=O)(=O)Nc1cc(Br)cc(NC(=O)c2cc(-c3ncccn3)cs2)c1 [Example 25],61.3%,5.6 nM
CCS(=O)(=O)Nc1cc(Cl)cc(NC(=O)c2cc(-c3ncccc3C)cs2)c1 [Example 224],67.3%,6.4 nM
CS(=O)(=O)Nc1cc(Br)cc(NC(=O)c2cnn(-c3cnccn3)c2)c1 [Example 40],60%,15.7 nM
CS(=O)(=O)Nc1cc(Cl)cc(NC(=O)c2cc(-c3ccccc3OCc3ccccc3)cs2)c1 [Example 111],68.2%,250 nM
"CS(=O)(=O)Nc1cc(Cl)cc(NC(=O)c2csc(-c3ccccc3)c2)c1 [Example 124, N-(3-chloro-5-(methylsulfonamido)phenyl)-5-phenylthiophene-3-carboxamide]",53.8%,604 nM
Cc1sc(C(=O)Nc2cc(Cl)cc(NS(C)(=O)=O)c2)cc1-c1ncccc1OCc1cncc(F)c1 [Example 621],74.4,6.8 nM
Cc1sc(C(=O)Nc2cc(Cl)cc(NS(C)(=O)=O)c2)cc1-c1ncc(N2CC(F)(F)C2)cc1OC(C)C [Example 534],78.3,19.9 nM
Cc1cc(C(=O)Nc2cc(Cl)cc(NS(C)(=O)=O)c2)cn1-c1ncc(S(C)(=O)=O)cn1 [Example 656],71.3,30.7 nM
Cc1sc(C(=O)Nc2cc(Cl)cc(NS(C)(=O)=O)c2)cc1-c1ccc(P(C)(C)=O)cn1 [Example 647],72.9,–
Cc1sc(C(=O)Nc2cc(Br)cc(NS(C)(=N)=O)c2)cc1-c1ccccn1 (stereo not drawn) [Example 123],72.8%,14.8 nM
Cc1cc(F)cnc1-c1cc(C(=O)Nc2cc(Cl)cc(NS(C)(=O)=O)c2)sc1C [Example 348],74.6%,31.8 nM
"CS(=O)(=O)Nc1cc(Cl)cc(NC(=O)c2cnn([C@H]3CC[C@H]3O)c2)c1 (single isomer, unassigned) [Example 306b]",74.2%,253 nM
CS(=O)(=O)Nc1cc(Cl)cc(NC(=O)c2cc(C3CC3)n(-c3ncc(F)cn3)c2)c1 [Example 451],73.2,54.3 nM
COc1cnc(-c2cc(C(=O)Nc3cc(Cl)cc(NS(C)(=O)=O)c3)sc2C)c(Cl)c1 [Example 364],79.8%,15.6 nM
CS(=O)(=O)Nc1cc(Cl)cc(NC(=O)c2cnn(-c3ncccc3OCc3ccn[nH]3)c2)c1 [Example 253],70%,110 nM
"CCn1cc(C(=O)Nc2cc(Cl)cc(NS(C)(=O)=O)c2)cc1-c1ccccc1 [Example 79, N-(3-chloro-5-(methylsulfonamido)phenyl)-1-ethyl-5-phenyl-1H-pyrrole-3-carboxamide]",67.8%,146 nM
CS(=O)(=O)Nc1cc(Cl)cc(NC(=O)c2cc(-c3ccccc3O)cs2)c1 [Example 106],58.7%,78 nM
CN1CC(Oc2cnc(-c3cc(C(=O)Nc4cc(Cl)cc(NS(C)(=O)=O)c4)cn3C)c(F)c2)C1 [Example 611],65.3,3.8 nM
Cc1sc(C(=O)Nc2cc(Cl)cc(NS(C)(=O)=O)c2)cc1-c1ncc(F)cc1N1CCS(=O)(=O)CC1 [Example 503],63.7,39.7 nM
CN(C)C(=O)c1cccnc1-c1csc(C(=O)Nc2cc(Cl)cc(NS(C)(=O)=O)c2)c1 [Example 222],78.7%,17.7 nM
CS(=O)(=O)Nc1cc(Cl)cc(NC(=O)c2cnn(-c3ncccc3OCc3cccc(Cl)c3)c2)c1 [Example 70],78.9%,8.5 nM
CS(=O)(=O)Nc1cc(Cl)cc(NC(=O)c2cnn(-c3ncccc3OCc3ccccn3)c2)c1 [Example 63],66.2%,83.9 nM
